Measured values published in US20020128231A1 (priority 2000, published 2002).

Legend:
[1] = target: P-glycoprotein (Homo sapiens, UniProt P08183); experiment: Rhodamine 123 transport assay across HCT-8 cell monolayers; settings: for inhibition at 10 μM: human, HCT-8 cell monolayers in Transwell dishes, probe Rhodamine 123 (15 μM)
Experimental: The human ileocecal adenocarcinoma cell line HCT-8 was grown in RPMI-1640 medium supplemented with 10% horse serum, 1 mM sodium pyruvate and 0.01 mg/ml gentamicin. All cells were maintained in a humidified atmosphere with 5% CO2 at 37° C.
Rhodamine 123 transport was examined as previously described (Hunter J. et al., Simmons, Br. J. Cancer, 64: 437444 (1991); Kim A. E. et al., J. Pharm. Exp. Ther., 286: 1439-1445 (1998)) using HCT-8 cells. Particularly, cells were grown in 6 well Corning Transwell dishes until a tight monolayer was formed. Rh123 was added at a final concentration of 15 μM to the basal or apical compartments and 200 μl samples were taken at the indicated times from the opposite chamber. Fluorescence of Rh123 in the media samples was measured using a fluorescence plate reader with an excitation wavelength of 485 nm and an emission wavelength of 530 nm.

[2] = system: MDR1-expressing NIH 3T3 cells; experiment: Cytotoxicity (MTT) assay: modulation of drug cytotoxicity in multidrug resistant cells; settings: compound 5 μM; 50 nM doxorubicin; 72 hours; MTT
Experimental: Cytotoxicity assays were performed with many of the compounds of Formula I to verify their usefulness as inhibitors of P-gp.
Parental NIH3T3 Swiss mouse embryo cell line was obtained from American Type Culture Collection and was grown in Dulbecco's Modified Eagles Medium supplemented with 4.5 g/L glucose, 10% fetal bovine serum, 2 mM L-glutamine, and 0.01 mg/ml gentamicin. […] All cells were maintained in a humidified atmosphere with 5% CO2 at 37° C.
Parental and MDR1-expressing NIH 3T3 cells were plated at a density of 2.5-3.0×10^3 cells/well in 96-well microtiter plates and were exposed to 50 nM of doxoriubicin, 7.5 nM vinblastine, 75 nM colchicine or 300 nM paclitaxel for 72 hours. Cell viability was determined with the colorimetric MTT (3-(4,5-dimethylthiazol-2-yl)-2,5-diphenyl tetrazolium) assay as previously described (Mosmann T., J. Immunol. Methods, 65: 55-63 (1983); Hansen M. B. et al., J. Immunol. Methods, 119: 203-210 (1989)) and the absorbance was measured at 570 nm.

[3] = compound 10 μM, Rh123 15 μM, HCT-8 cells
[4] = % Inhibition of R123 Transport, compound 10 μM, Rh123 15 μM, HCT-8 cells

P-glycoprotein, sequence (P08183 whole entry): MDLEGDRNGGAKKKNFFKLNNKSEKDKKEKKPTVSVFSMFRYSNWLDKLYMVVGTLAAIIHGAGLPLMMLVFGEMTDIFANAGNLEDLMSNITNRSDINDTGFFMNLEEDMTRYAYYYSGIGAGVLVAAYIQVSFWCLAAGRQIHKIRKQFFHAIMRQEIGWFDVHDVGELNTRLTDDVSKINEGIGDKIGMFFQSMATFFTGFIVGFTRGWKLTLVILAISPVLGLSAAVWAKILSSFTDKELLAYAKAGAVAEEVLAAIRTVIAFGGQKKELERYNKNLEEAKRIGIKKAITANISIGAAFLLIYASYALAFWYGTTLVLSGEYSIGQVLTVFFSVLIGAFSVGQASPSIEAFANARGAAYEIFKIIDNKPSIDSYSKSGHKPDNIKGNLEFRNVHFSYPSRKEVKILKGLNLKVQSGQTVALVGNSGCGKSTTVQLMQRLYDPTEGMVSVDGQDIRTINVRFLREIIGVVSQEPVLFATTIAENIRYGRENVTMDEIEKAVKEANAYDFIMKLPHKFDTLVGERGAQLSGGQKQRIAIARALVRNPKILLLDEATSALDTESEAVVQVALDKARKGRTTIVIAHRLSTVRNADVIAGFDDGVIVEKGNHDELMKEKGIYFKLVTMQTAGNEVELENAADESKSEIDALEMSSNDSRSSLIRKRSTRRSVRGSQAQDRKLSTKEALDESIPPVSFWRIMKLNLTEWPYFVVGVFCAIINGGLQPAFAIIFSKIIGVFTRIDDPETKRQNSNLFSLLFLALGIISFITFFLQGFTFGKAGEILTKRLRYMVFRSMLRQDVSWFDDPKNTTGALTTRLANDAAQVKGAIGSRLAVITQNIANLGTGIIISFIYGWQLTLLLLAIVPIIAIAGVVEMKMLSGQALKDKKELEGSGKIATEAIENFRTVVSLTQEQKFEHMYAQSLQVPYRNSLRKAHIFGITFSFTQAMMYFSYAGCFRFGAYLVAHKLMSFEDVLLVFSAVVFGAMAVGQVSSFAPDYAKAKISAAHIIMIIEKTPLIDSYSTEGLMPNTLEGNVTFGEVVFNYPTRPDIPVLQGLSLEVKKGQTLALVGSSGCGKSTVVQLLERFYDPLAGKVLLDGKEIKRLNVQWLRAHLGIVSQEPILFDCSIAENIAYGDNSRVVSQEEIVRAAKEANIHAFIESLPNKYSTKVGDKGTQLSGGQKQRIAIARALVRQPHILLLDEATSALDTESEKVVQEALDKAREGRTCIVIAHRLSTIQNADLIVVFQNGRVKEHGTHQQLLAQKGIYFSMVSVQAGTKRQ

Molecule | inhibition at 10 μM [1] [%] | Modulation of Drug Resistance (percentage increase in doxorubicin cytotoxicity in the presence of the compounds versus in their absence) [2] [%] | % Inhibition of R123 Transport [1, 3] [%] | inhibition at 10 μM [1, 4] [%]
COCC1C(CCN2CCC(Cc3ccccc3)CC2)c2cc(OC)c(OC)cc2C1c1ccc(OC)c(OC)c1 (stereo not drawn) | 88.9 | 73.65 | – | –
2-{3-(3,4-dimethoxyphenyl)-5,6-dimethoxy-2-[4-(4-nitrophenyl)-piperazin-1-carbonyl]-indan-1-yl}-1-[4-(4-nitrophenyl)-1-yl]-ethanone [AV-196] | – | 41.47 | 64.4 | –
CCCOc1ccc(C2c3cc(OCCC)c(OC)cc3C(CC(=O)N3CCN(c4ccccc4OCC)CC3)C2C(=O)N2CCN(c3ccccc3OCC)CC2)cc1OC (single isomer, unassigned) [AV-239-1] | – | 55.3 | 90.10 | –
CCCOc1ccc(C2c3cc(OCCC)c(OC)cc3C(CC(=O)N3CCN(c4ccccc4OCC)CC3)C2C(=O)N2CCN(c3ccccc3OCC)CC2)cc1OC (single isomer, unassigned) [AV-239-2] | – | 60 | 91.38 | –
COc1cc(C2c3cc(O)c(OC)cc3C(CC(=O)N3CCC(Cc4ccccc4)CC3)C2C(=O)N2CCC(Cc3ccccc3)CC2)ccc1O (single isomer, unassigned) [AV-251-1] | – | −6.9 | 79.26 | –
COc1cc(C2c3cc(O)c(OC)cc3C(CC(=O)N3CCC(Cc4ccccc4)CC3)C2C(=O)N2CCC(Cc3ccccc3)CC2)ccc1O (single isomer, unassigned) [AV-251-2] | – | 2.4 | 75.44 | –
CCOc1ccccc1N1CCN(C(=O)CC2c3cc4c(cc3C(c3ccc5c(c3)OCO5)C2C(=O)N2CCN(c3ccccc3OCC)CC2)OCO4)CC1 (single isomer, unassigned) [AV-258-1, 2-{7-benzo[1,3]dioxol-5-yl-6-[4-(2-ethoxy-phenyl)-piperazin-1-carbonyl]-6,7-dihydro-5H-indeno[5,6-d][1,3]dioxol-5-yl}-1-[4-(2-ethoxy-phenyl)-piperazin-1-yl]-ethanone] | – | 7.9 | – | 69.9
CCOc1ccccc1N1CCN(C(=O)CC2c3cc4c(cc3C(c3ccc5c(c3)OCO5)C2C(=O)N2CCN(c3ccccc3OCC)CC2)OCO4)CC1 (single isomer, unassigned) [AV-258-2, 2-{7-benzo[1,3]dioxol-5-yl-6-[4-(2-ethoxy-phenyl)-piperazin-1-carbonyl]-6,7-dihydro-5H-indeno[5,6-d][1,3]dioxol-5-yl}-1-[4-(2-ethoxy-phenyl)-piperazin-1-yl]-ethanone] | – | 19.2 | 67.09 | –
COc1ccc(C2c3cc(OC)c(OC)cc3C(CC(=O)N3CCC(Cc4ccccc4)CC3)C2C(=O)N2CCC(Cc3ccccc3)CC2)cc1OC (stereo not drawn) [AV-159, 2-[2-(4-benzylpiperidine-1-carbonyl)-3-(3,4-dimethoxyphenyl)-5,6-dimethoxy-indan-1-yl]-1-(4-benzylpiperidin-1-yl)-ethanone] | – | 56.06 | – | 81.4
COc1ccc(C2c3cc(OC)c(OC)cc3C(CC(=O)N3CCN(c4ccccc4)CC3)C2C(=O)N2CCN(c3ccccc3)CC2)cc1OC (stereo not drawn) [AV-161, 2-[3-(3,4-dimethoxyphenyl)-5,6-dimethoxy-2-(4-phenylpiperazin-1-carbonyl)-indan-1-yl]-1-(4-phenylpiperazin-1-yl)-ethanone] | – | 75.91 | – | 64.1
COc1ccc(C2c3cc(OC)c(OC)cc3C(CCN3CCN(c4ccccc4)CC3)C2CN2CCN(c3ccccc3)CC2)cc1OC (stereo not drawn) [AV-162, 2-[3-(3,4-dimethoxyphenyl)-5,6-dimethoxy-2-(4-phenylpiperazin-1-yl)methyl-indan-1-yl]-1-(4-phenylpiperazin-1-yl)-ethane] | – | 65.83 | – | 83.1
COc1ccc(C2c3cc(OC)c(OC)cc3C(CC(=O)N3CCN(c4ccc(C(C)=O)cc4)CC3)C2C(=O)N2CCN(c3ccc(C(C)=O)cc3)CC2)cc1OC (stereo not drawn) [AV-163, 2-[2-[4-(4-acetylphenyl)-piperazin-1-carbonyl]-3-(3,4-dimethoxyphenyl)-5,6-dimethoxy-indan-1-yl]-1[4-(4-acetylphenyl)piperazine-1-yl]-ethanone] | – | 72.55 | – | 89.7
COc1ccc(C2c3cc(OC)c(OC)cc3C(CC(=O)N3CCN(Cc4ccccc4)CC3)C2C(=O)N2CCN(Cc3ccccc3)CC2)cc1OC (stereo not drawn) [AV-164, 2-[2-(4-benzylpiperazine-1-carbonyl)-3-(3,4-dimethoxyphenyl)-5,6-dimethoxy-indan-1-yl]-1-(4-benzylpiperazine-1-yl)-ethanone] | – | 70.03 | – | 85.1
COc1ccc(C2c3cc(OC)c(OC)cc3C(CC(=O)N3CCN(c4ccc(Cl)cc4)CC3)C2C(=O)N2CCN(c3ccc(Cl)cc3)CC2)cc1OC (stereo not drawn) [AV-167, 2-[2-[4-(4-chlorophenyl)-piperazin-1 carbonyl]-3-(3,4-dimethoxyphenyl)-5,6-dimethoxy-indan-1-yl]-1-[4-(4-chlorophenyl)piperazine-1-yl]-ethanone] | – | 68.21 | – | 66.3
COc1ccc(N2CCN(C(=O)CC3c4cc(OC)c(OC)cc4C(c4ccc(OC)c(OC)c4)C3C(=O)N3CCN(c4ccc(OC)cc4)CC3)CC2)cc1 (stereo not drawn) [AV-168, 2-{3-(3,4-dimethoxyphenyl)-5,6-dimethoxy-2-[4-(4-methoxyphenyl)-piperazin-1-carbonyl]-indan-1-yl}-1-[4-(4-methoxyphenyl)-1-yl]-ethanone] | – | 73.81 | 81.5 | –
COc1ccc(C2c3cc(OC)c(OC)cc3C(CC(=O)N3CCN(c4ccc(F)cc4)CC3)C2C(=O)N2CCN(c3ccc(F)cc3)CC2)cc1OC (stereo not drawn) [AV-169, 2-{2-[4-(4-fluorophenyl)-piperazin-1-carbonyl]-3-(3,4-dimethoxyphenyl)-5,6-dimethoxy-indan-1-yl}-1-[4-(4-fluorophenyl)piperazine-1-yl]-ethanone] | – | 71.29 | – | 77.1
CCOc1ccccc1N1CCN(C(=O)CC2c3cc(OC)c(OC)cc3C(c3ccc(OC)c(OC)c3)C2C(=O)N2CCN(c3ccccc3OCC)CC2)CC1 (stereo not drawn) [AV-171, 2-{3-(3,4-dimethoxyphenyl)-5,6-dimethoxy-2-[4-(2-ethoxyphenyl)-piperazin-1-carbonyl]-indan-1-yl}-1-[4-(2-ethoxyphenyl)-1-yl]-ethanone] | – | 66.11 | 92.9 | –
COc1ccc(C2c3cc(OC)c(OC)cc3C(CC(=O)N3CCN(CC=Cc4ccccc4)CC3)C2C(=O)N2CCN(CC=Cc3ccccc3)CC2)cc1OC (stereo not drawn) [AV-172, 2-{3-(3,4-dimethoxyphenyl)-5,6-dimethoxy-2-[4-(3-phenylallyl)-piperazine-1-carbonyl]-indan-1-yl}-1-[4-(3-phenylallyl)piperazine-1-yl]-ethanone] | – | 68.57 | – | 86.7
CCOC(=O)N1CCN(C(=O)CC2c3cc(OC)c(OC)cc3C(c3ccc(OC)c(OC)c3)C2C(=O)N2CCN(C(=O)OCC)CC2)CC1 (stereo not drawn) [AV-174, 4-{2-[3-(3,4-dimethoxyphenyl)-5,6-dimethoxy-2-(piperazine-1-carboxylic acid ethyl ester)-indan-1-yl]-acetyl}-piperazine-1-carboxylic acid ethyl ester] | – | 18.50 | 23.1 | –
COc1ccc(C2c3cc(OC)c(OC)cc3C(CCO[Si](c3ccccc3)(c3ccccc3)C(C)(C)C)C2CO)cc1OC (stereo not drawn) [AV-175, [1-[2-t-butyldiphenyl-silanoxy)-ethyl-3-(3,4-dimethoxyphenyl)-5,6-dimethoxy-indan-2-yl]-methanol] | – | 52.50 | 71.3 | –
COCC1C(CCO)c2cc(OC)c(OC)cc2C1c1ccc(OC)c(OC)c1 (stereo not drawn) [AV-176, 2-[3-[3,4-dimethoxyphenyl)-5,6-dimethoxy-2-methoxymethyl-indan-1-yl]-ethanol] | – | 8.65 | – | 11.5
COCC1C(CCOS(C)(=O)=O)c2cc(OC)c(OC)cc2C1c1ccc(OC)c(OC)c1 (stereo not drawn) [AV-177, methanesulfonic acid 2-[3-(3,4-dimethoxyphenyl)-5,6-dimethoxy-2-methoxymethyl-indan-1-yl] ethyl ester] | – | 40.32 | 9.4 | –
COCC1C(CCN2CCN(CC=Cc3ccccc3)CC2)c2cc(OC)c(OC)cc2C1c1ccc(OC)c(OC)c1 (stereo not drawn) [AV-204, 1-{2-[3-(3,4-dimethoxyphenyl)-5,6-dimethoxy-2-methoxymethyl-indan-1-yl]-ethyl}-4-(3-phenylallyl)-piperazine] | – | 64.60 | – | –
